Test results from PubChem BioAssay (NCI).
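Cultured in 96-well plates, cells were exposed to test compound for 48 hours across five concentrations. TGI: total growth inhibition.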

Key:
Experiment in all cases: DTP human tumour cell line panel, 48 h
[1] = system: UACC-62 melanoma
[2] = system: SF-539 CNS
[3] = system: KM12 colon
[4] = system: 786-0 renal
[5] = system: MALME-3M melanoma
[6] = system: SK-MEL-28 melanoma
[7] = system: TK-10 renal
[8] = system: SW-620 colon
[9] = system: LOX IMVI melanoma
[10] = system: M14 melanoma
[11] = system: U251 CNS
[12] = system: HCT-15 colon
[13] = system: UO-31 renal
[14] = system: OVCAR-3 ovarian
[15] = system: DU-145 prostate
[16] = system: BT-549 breast
[17] = system: MDA-MB-231 breast
[18] = system: A498 renal
[19] = system: UACC-257 melanoma
[20] = system: IGROV1 ovarian
[21] = system: A549 NSCLC
[22] = system: HOP-62 NSCLC
[23] = system: HT29 colon
[24] = system: ACHN renal
[25] = system: SF-268 CNS
[26] = system: SK-OV-3 ovarian
[27] = system: SR leukemia
[28] = system: NCI-H23 lung
[29] = system: RPMI-8226 leukemia
[30] = system: RXF 393 renal
[31] = system: MCF7 breast
[32] = system: OVCAR-5 ovarian
[33] = system: HS 578T breast
[34] = system: HCT-116 colon
[35] = system: SNB-75 CNS
[36] = system: MDA-MB-435
[37] = system: PC-3 prostate
[38] = system: MDA-N
[39] = system: HCC-2998 colon
[40] = system: K-562 leukemia
[41] = system: T-47D breast
[42] = system: SNB-19 CNS
[43] = system: SK-MEL-5 melanoma
[44] = system: OVCAR-8 ovarian
[45] = system: NCI-H460 lung
[46] = system: SF-295 CNS
[47] = system: SK-MEL-2 melanoma
[48] = system: NCI-H226 lung
[49] = system: SN12C renal
[50] = system: MOLT-4 leukemia
[51] = system: EKVX NSCLC
[52] = system: CAKI-1 renal
[53] = system: COLO 205 colon
[54] = system: CCRF-CEM leukemia
[55] = system: HOP-92 NSCLC
[56] = system: HL-60(TB) leukemia
[57] = system: NCI-H522 lung

## O=C1C=CC(=O)c2c(O)c(NCCCN3CCOCC3)c(Cl)c(O)c21
[1]
  TGI: 4.81 µM
[2]
  TGI: 3.21 µM
[3]
  TGI: 3.8 µM
[4]
  TGI: 5.23 µM
[5]
  TGI: 3.56 µM
[6]
  TGI: 3.17 µM
[7]
  TGI: > 10 µM
[8]
  TGI: 4.22 µM
[9]
  TGI: 4.26 µM
[10]
  TGI: 4.18 µM
[11]
  TGI: 5.55 µM
[12]
  TGI: 3.12 µM
[13]
  TGI: 3.64 µM
[14]
  TGI: 2.99 µM
[15]
  TGI: 2.95 µM
[16]
  TGI: 3.28 µM
[17]
  TGI: 7.96 µM
[18]
  TGI: > 10 µM
[19]
  TGI: 4.94 µM
[20]
  TGI: 3.58 µM
[21]
  TGI: > 10 µM
[22]
  TGI: 3.86 µM
[23]
  TGI: 7.34 µM
[24]
  TGI: > 10 µM
[25]
  TGI: 7.07 µM
[26]
  TGI: > 10 µM
[27]
  TGI: 4.64 µM
[28]
  TGI: 3.43 µM
[29]
  TGI: 1.54 µM
[30]
  TGI: 3.13 µM
[31]
  TGI: 3.31 µM
[32]
  TGI: 3.1 µM
[33]
  TGI: 3.14 µM
[34]
  TGI: 2.93 µM
[35]
  TGI: 4.15 µM
[36]
  TGI: 3.62 µM
[37]
  TGI: 9.91 µM
[38]
  TGI: 3.09 µM
[39]
  TGI: 3.71 µM
[40]
  TGI: 8.68 µM
[41]
  TGI: > 10 µM
[42]
  TGI: 3.25 µM
[43]
  TGI: 2.4 µM
[44]
  TGI: > 10 µM
[45]
  TGI: > 10 µM
[46]
  TGI: 5.49 µM
[47]
  TGI: 0.526 µM
[48]
  TGI: > 10 µM
[49]
  TGI: 3.68 µM

## COc1cccc(C2c3cc4c(cc3OC(NNc3ccccc3)C2C)OCO4)c1O (stereo unspecified)
[1]
  TGI: 17.9 µM
[2]
  TGI: 9.87 µM
[3]
  TGI: 18.3 µM
[4]
  TGI: 23.2 µM
[5]
  TGI: 19.1 µM
[50]
  TGI: 23.5 µM
[6]
  TGI: 24.7 µM
[7]
  TGI: 17.3 µM
[8]
  TGI: 25.5 µM
[9]
  TGI: 27.5 µM
[10]
  TGI: 19.3 µM
[11]
  TGI: 18.7 µM
[12]
  TGI: 12 µM
[13]
  TGI: 16.6 µM
[14]
  TGI: 8.36 µM
[15]
  TGI: 18.9 µM
[16]
  TGI: 20.4 µM
[51]
  TGI: 22.1 µM
[17]
  TGI: 27.9 µM
[18]
  TGI: 28.2 µM
[19]
  TGI: 17.7 µM
[20]
  TGI: 25.5 µM
[21]
  TGI: 19.2 µM
[22]
  TGI: 8.14 µM
[52]
  TGI: 23.3 µM
[53]
  TGI: 23.8 µM
[23]
  TGI: 23.3 µM
[24]
  TGI: 15.5 µM
[54]
  TGI: 21.7 µM
[25]
  TGI: 42.4 µM
[26]
  TGI: 58.4 µM
[27]
  TGI: 6.28 µM
[28]
  TGI: 28 µM
[29]
  TGI: 22.6 µM
[30]
  TGI: 29.6 µM
[31]
  TGI: 19.6 µM
[32]
  TGI: 27.1 µM
[33]
  TGI: 34.5 µM
[55]
  TGI: 28.5 µM
[34]
  TGI: 18 µM
[35]
  TGI: 47.4 µM
[36]
  TGI: 12.5 µM
[37]
  TGI: 19.1 µM
[38]
  TGI: 8.59 µM
[39]
  TGI: 6.47 µM
[56]
  TGI: 12.9 µM
[40]
  TGI: 11.9 µM
[41]
  TGI: 31.1 µM
[42]
  TGI: 32.4 µM
[43]
  TGI: 20 µM
[44]
  TGI: 21.1 µM
[45]
  TGI: 15.5 µM
[46]
  TGI: 10.5 µM
[47]
  TGI: 25.7 µM
[57]
  TGI: 14.4 µM
[48]
  TGI: 29.6 µM
[49]
  TGI: 23.5 µM
